Measurements taken from paper PMC6155811, “Effect of Phenolic Compounds from Elderflowers on Glucose- and Fatty Acid Uptake in Human Myotubes and HepG2-Cells” (Molecules : A Journal of Synthetic Chemistry and Natural …, 2017).

Key:
[1] = test system: human skeletal muscle cells; assay: Glucose uptake in human myotubes ([14C(U)]-glucose); format: cell-based; conditions: 10 µM, 2 days, vs 0.1% DMSO control; mean ± SEM
Description: Figure 2 Effects of elderflower extracts, constituents and metabolites on glucose uptake in human myotubes. Myotubes were treated with (A) 12.5, 25 and 50 µg/mL of different crude extracts; (B,C) 0.1, 1 and 10 µM of elderflower phenolic compounds and metabolites for 2 days. Thereafter, the cells were exposed to [^14C(U)]-glucose (1 μCi/mL, 100 μM) for 4 h as described in the Materials and Methods section. 22-S-hydroxycholesterol (22-SHC) (10 μM) was used as positive control. The figures show [^14C(U)]-glucose uptake given as means ± standard error of the mean (SEM) (n = 3) from separate experiments. * p < 0.05 vs. control (0.1% dimethyl sulfoxide (DMSO)).
(§1) Satellite cells were isolated from the Musculus obliquus internus abdominis of four healthy donors, age 34.8 (±19) years, body mass index 22.9 (±2.7) kg/m^2, fasting glucose 4.9 (±0.6) mM, insulin, plasma lipids and blood pressure within normal range and no family history of diabetes. The muscle biopsies were obtained with informed consent and approval by the National Committee for Research Ethics (Oslo, Norway). The cells were cultured on 96-well CellBIND microplates DMEM-Glutamax (5.5 mM glucose), 2% fetal bovine serum, 2% Ultroser G, penicillin (100 units/mL), streptomycin (100 μg/mL) and amphotericin B (1.25 μg/mL) for proliferation. At 70%–80% confluence, the growth medium was replaced by DMEM-Glutamax (5.5 mM glucose) supplemented with 2% fetal bovine serum, penicillin (100 units/mL), streptomycin (100 μg/mL), amphotericin B (1.25 μg/mL) and insulin (25 pM), to induce differentiation. The cells were cultured in humidified 5% CO2 atmosphere at 37 °C, and the medium was changed every 2–3 days. Experiments were performed after 7 days of differentiation. 22-S-hydroxycholesterol (22-SHC) (10 µM) was used as positive control in the glucose uptake assay. The positive control used in the oleic acid assay is the synthetic liver X receptor (LXR) agonist T0901317 (10 µm).
(§2) Cells were exposed to test samples solved in 0.1% DMSO that were added directly to the medium for 2 days for myotubes and 24 h for HepG2 cells. Thereafter, cells were exposed to [^14C(U)]-glucose (1 μCi/mL, 100 μM) or [^14C]-oleic acid (37 kBq, 100 µM) for 4 h. A 96-well UniFilter-96 GF7B microplate (Perkin Elmer, Waltham, MA, USA) was mounted on top of the CellBIND plate (Corning Life-Sciences (Schiphol-Rijk, The Netherlands) and CO2 production was measured. After incubation the cells were washed twice with ice-cold phosphate buffered saline (PBS), lysed in 0.1 M NaOH, and radioactivity measured by liquid scintillation counting. The protein content of each sample was determined and glucose uptake was calculated using protein levels for standardization.

[2] = test system: human skeletal muscle cells; assay: Oleic acid uptake in human myotubes ([14C]-oleic acid); format: cell-based; conditions: 10 µM (highest concentration tested), 2 days, vs 0.1% DMSO control
Description: Figure 3 Effects of elderflower extracts, constituents and metabolites on oleic acid uptake in human myotubes. Myotubes were treated with (A) 12.5, 25 and 50 µg/mL of different crude extracts; (B,C) 0.1, 1 and 10 µM of elderflower phenolic compounds and metabolites for 2 days. Thereafter, the cells were exposed to [^14C]-oleic acid (37 kBq, 100 µM) for 4 h as described in Materials and Methods. A synthetic liver X receptor (LXR) agonist T0901317 (10 μM) was used as positive control. The figures show [^14C]-oleic acid uptake given as means ± SEM (n = 3) from separate experiments. * p < 0.05 vs. control (0.1% DMSO).
as §1, §2

DPPH radical scavenging = conditions: IC50 ± SD; for IC50: phenolic compounds and metabolites
Description: Scavenging activity towards the DPPH radical was carried out as previously described. Test substances were dissolved in DMSO or water. Values were corrected for absorbance of the test substances.

[3] = molecular target: T1, Porcine pancreatic α-amylase (Sus scrofa, UniProt P00690); assay: α-Amylase inhibitory activity; format: biochemical; conditions: phenolic compounds and metabolites; IC50 ± SD
T1 construct: purchased Sigma-Aldrich Chemie GmbH
T1 sequence (P00690 16-511): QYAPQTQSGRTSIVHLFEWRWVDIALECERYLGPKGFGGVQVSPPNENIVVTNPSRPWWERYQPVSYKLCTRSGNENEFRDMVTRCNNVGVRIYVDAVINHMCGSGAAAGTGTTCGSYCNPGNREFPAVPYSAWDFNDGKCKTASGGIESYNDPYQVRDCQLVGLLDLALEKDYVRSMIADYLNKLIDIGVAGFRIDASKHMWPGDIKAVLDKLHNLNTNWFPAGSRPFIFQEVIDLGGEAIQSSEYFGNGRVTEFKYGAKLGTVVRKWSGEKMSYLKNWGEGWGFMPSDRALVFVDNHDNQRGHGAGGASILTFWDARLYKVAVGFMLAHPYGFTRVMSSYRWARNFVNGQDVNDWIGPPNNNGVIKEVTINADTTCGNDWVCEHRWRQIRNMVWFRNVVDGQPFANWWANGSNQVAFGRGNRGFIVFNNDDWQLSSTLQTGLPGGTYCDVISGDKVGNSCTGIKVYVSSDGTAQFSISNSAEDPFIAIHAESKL
Description: The α-amylase assay was performed as described by Gella, et al.. Porcine pancreatic α-amylase (EC 3.2.1.1) was purchased from Sigma-Aldrich Chemie GmbH.

HepG2-cells [4] = assay: Glucose uptake in HepG2-cells ([14C(U)]-glucose); format: cell-based, human; conditions: 24 h, vs 0.1% DMSO control
Description: The human hepatoblastoma cell line HepG2 (HB-8065, ATCC, Manassas, VA, USA) was cultured in DMEM-Glutamax (5.5 mM glucose) supplemented with 10% fetal bovine serum, streptomycin (100 μg/mL) and penicillin (100 units/mL) at 37 °C in 5% CO2.
as §2

[5] = molecular target: T2, 15-lipoxygenase (15-LO) from soybeans (Glycine max, UniProt P08170); assay: Inhibition of 15-lipoxygenase; format: biochemical, soybean; conditions: phenolic compounds and metabolites; IC50 ± SD; read-out: 15-LO IC50
T2 construct: 15-lipoxygenase (15-LO) from soybeans; purchased Sigma-Aldrich (St. Louis, MO, USA); host or cells: soybeans
T2 sequence (P08170 1-839): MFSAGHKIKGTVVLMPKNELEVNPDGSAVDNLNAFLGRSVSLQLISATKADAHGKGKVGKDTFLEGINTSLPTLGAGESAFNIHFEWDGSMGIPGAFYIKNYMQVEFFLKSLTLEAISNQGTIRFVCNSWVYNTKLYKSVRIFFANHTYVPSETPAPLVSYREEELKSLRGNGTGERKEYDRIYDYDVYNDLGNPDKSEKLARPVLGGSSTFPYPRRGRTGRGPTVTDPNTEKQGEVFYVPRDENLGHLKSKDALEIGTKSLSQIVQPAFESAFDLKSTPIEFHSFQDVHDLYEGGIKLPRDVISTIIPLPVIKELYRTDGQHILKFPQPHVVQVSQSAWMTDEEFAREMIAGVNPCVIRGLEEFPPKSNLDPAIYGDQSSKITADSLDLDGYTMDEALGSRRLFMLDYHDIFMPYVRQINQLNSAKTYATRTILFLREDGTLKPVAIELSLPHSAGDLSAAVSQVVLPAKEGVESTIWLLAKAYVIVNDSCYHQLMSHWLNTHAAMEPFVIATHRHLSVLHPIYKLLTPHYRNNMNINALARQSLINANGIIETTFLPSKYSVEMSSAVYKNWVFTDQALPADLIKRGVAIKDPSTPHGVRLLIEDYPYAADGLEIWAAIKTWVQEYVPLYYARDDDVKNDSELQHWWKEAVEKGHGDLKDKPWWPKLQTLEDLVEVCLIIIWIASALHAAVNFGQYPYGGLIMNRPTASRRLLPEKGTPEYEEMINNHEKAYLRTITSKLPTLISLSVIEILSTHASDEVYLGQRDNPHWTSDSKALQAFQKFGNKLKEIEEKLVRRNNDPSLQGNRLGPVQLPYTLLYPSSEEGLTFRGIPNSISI
Description: Test substances were dissolved in DMSO or water, and the assay was carried out as previously described.

[6] = molecular target: T3, xanthine oxidase from bovine milk (Bos taurus, UniProt P80457); assay: Inhibition of xanthine oxidase; format: biochemical; conditions: phenolic compounds and metabolites; IC50 ± SD; read-out: XO IC50
T3 construct: xanthine oxidase from bovine milk; purchased Sigma-Aldrich (St. Louis, MO, USA); host or cells: bovine milk
T3 sequence (P80457 whole entry): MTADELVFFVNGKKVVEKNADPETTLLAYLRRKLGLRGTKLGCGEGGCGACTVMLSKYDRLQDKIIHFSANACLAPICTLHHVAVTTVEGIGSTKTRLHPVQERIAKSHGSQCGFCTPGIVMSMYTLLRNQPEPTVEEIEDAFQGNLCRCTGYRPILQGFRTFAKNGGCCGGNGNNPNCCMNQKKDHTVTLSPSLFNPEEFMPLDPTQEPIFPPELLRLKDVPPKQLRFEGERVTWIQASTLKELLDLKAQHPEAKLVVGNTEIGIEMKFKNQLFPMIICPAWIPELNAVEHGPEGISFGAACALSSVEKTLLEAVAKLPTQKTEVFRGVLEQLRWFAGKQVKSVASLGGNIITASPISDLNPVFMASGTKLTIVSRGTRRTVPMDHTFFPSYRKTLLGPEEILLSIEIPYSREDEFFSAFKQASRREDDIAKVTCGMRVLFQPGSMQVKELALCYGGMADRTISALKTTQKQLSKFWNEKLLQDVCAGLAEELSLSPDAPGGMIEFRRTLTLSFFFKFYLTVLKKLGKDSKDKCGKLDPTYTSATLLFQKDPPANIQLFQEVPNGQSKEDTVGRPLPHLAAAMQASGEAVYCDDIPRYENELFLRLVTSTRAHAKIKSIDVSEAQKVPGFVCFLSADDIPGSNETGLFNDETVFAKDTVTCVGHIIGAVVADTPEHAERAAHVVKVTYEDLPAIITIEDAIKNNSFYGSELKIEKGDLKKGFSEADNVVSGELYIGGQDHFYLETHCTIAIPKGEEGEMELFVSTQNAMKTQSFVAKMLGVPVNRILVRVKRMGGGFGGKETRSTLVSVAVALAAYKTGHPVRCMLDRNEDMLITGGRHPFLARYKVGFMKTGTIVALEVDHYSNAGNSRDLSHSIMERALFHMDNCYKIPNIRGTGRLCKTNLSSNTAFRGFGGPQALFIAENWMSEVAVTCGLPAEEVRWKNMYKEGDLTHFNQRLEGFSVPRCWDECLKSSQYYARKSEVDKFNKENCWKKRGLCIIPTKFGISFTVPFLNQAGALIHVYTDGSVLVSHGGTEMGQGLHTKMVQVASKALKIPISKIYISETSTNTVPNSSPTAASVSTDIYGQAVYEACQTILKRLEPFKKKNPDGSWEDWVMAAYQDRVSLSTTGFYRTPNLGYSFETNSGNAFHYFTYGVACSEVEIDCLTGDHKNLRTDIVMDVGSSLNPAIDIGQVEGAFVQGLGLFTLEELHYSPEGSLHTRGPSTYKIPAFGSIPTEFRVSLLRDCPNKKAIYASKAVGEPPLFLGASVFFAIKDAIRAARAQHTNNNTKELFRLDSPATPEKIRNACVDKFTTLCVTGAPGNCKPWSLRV
Description: The XO inhibitory activity with hypoxanthine as the substrate was carried out previously described. Test substances were dissolved in DMSO or water.

HepG2-cells [7] = assay: Oleic acid uptake in HepG2-cells ([14C]-oleic acid); format: cell-based, human; conditions: highest concentration tested
Description: as §2, with “Thereafter, cells were exposed to [^14C(U)]-glucose (1 μCi/mL, 100 μM) or [^14C]-oleic acid (37 kBq, 100 µM) for 4 h.” left out, “The protein content of each sample was determined and glucose uptake was calculated using protein levels for standardization.” left out

SMILES | increase in glucose uptake [1] | increase in oleic acid uptake [2] | IC50 (DPPH radical scavenging) | IC50 [3] | maximal increase in glucose uptake (HepG2-cells [4]) | IC50 [5] | DPPH IC50 (DPPH radical scavenging; crude extracts) | IC50 [6] | enhancement of oleic acid uptake (HepG2-cells [7])
O=c1c(O)c(-c2ccc(O)cc2)oc2cc(O)cc(O)c12 [Kaempferol] | 39.1% ± 5.8% | 25.0% ± 3.0% | 10.6 ± 3.9 µM | 3.6 ± 1.1 µM | 45.2% ± 2.6% | 93.7 ± 3.7 µM | – | – | –
O=c1c(O)c(-c2ccc(O)c(O)c2)oc2cc(O)cc(O)c12 [Quercetin] | 37.1% ± 4.6% | – | 9.3 ± 1.5 µM | – | 41.1% ± 3.2% | – | 2.8 ± 0.3 µg/mL | – | –
O=C(/C=C/c1ccc(O)c(O)c1)O[C@@H]1C[C@](O)(C(=O)O)C[C@@H](O)[C@H]1O [Chlorogenic acid] | – | 17.3% ± 2.5% | – | 9.1 ± 1.1 µM | – | 106 ± 2.3 µM | – | 24.2 ± 5.3 µM | 25.6% ± 4.6%
